In US10143668B2, “Hydroxy-substituted amino and ammonium derivatives and their medical use” (GRI BIO, INC., priority 2011, dated 2018):

Tested on: Akt phosphorylation on Ser473
Assay: Inhibition of activation of Akt kinase (phospho-Akt Ser473 assay in RBL-2H3 cells)
Format: cell-based, rat
Conditions: IgE and antigen for 15 min
Excerpt: The mast cell degranulation assay using the RBL-2H3 cell line (see example 5) was also used to determine the status of the PI3K/Akt axis. Activation of PI3K leads to production of PIP3 on the cytosolic side of the lipid bilayer. Akt is recruited to the PIP3 domain and subsequently activated by phosphorylation on residues Ser473 and Thr308. (Franke et al., Cell 81:727-736, (1995)). Once recruited to the membrane, it is phosphorylated and activated by other kinases (Hemmings, Science 275:628-630 (1997); Hemmings, Science 276:534 (1997); Downward, Science 279:673-674 (1998); Alessi et al., EMBO J. 15:6541-6551 (1996)). Western blotting of the phosphorylated Ser473 residue on Akt (phospho-Akt Ser473) is widely used to assess the level of activation of the PI3K/Akt axis.
All buffers and solutions used for the phosphor-Akt Ser473 assay were from Meso Scale Discovery. Tris Lysis Buffer consisted of 150 mM NaCl, 20 mM Tris, pH 7.5, 1 mM EDTA, 1 mM EGTA and 1% Triton-X-100. Complete Tris Lysis Buffer was prepared prior to use by addition of protease inhibitor, phosphatase inhibitors and PMSF. […] Read Buffer T was used according to manufacturer's instructions. […]
Protein assay: protein concentration was determined using the BCA (bicinchoninic acid) Protein Assay kit according to the manufacturer's instructions. […] Plates were cooled to room temperature for 5 min and absorbance at 562 nm was measured in a multi-mode plate reader. Protein concentrations were calculated using FlexStation 3 software (SoftMax Pro version 5.3). Protein concentration of lysates was determined from a standard curve (BSA) using a linear curve fit.
Phosphoprotein assay: protein phosphorylation was determined using the MULTI-SPOT® Assay System (Mesa Scale Discovery), providing simultaneous detection of phosphorylated and total proteins. […] The optimal amount of protein was determined at 5 μg lysate per well for ERK½ and 10 μg/well for phospho-Akt Ser473. […] After a final four washes with Tris Wash Buffer 150 μl/well, Read Buffer T was added, and plates read on a SECTOR Imager 6000 plate reader. […]

CCCCCCCCCCCCCC[N+](C)(C)CC(=O)N(C)C[C@H](O)[C@@H](O)[C@H](O)[C@H](O)CO [Compound 1a, N-(2-(Dimethyl(tetradecyl)ammonio)acetyl)-N-methyl-D-glucamine chloride]
Level of phospho-Akt Ser473 (1 μM): 81.8 ± 42.5 % positive control
Level of phospho-Akt Ser473 (5 μM): 22.6 ± 15.7 % positive control
Level of phospho-Akt Ser473 (25 μM): 6.8 ± 1.8 % positive control
